In paper PMC6350621, “Small-molecules that covalently react with a human prolyl hydroxylase – towards activity modulation and substrate capture” (Chemical Communications (Cambridge, England), 2018):

Assays:
PHD2 = target: T1, PHD2 (Homo sapiens, UniProt Q9GZT9); test: Peptide turnover assay (CODD hydroxylation) with MALDI-MS detection; assay type: biochemical; settings: pre-incubation 0, 1, 2 and 4 h
T1 construct: PHD2_181–426 (hereafter PHD2); His6 (N, cleaved yes); made in house; host or cells: bacterial culture (2x TY, kanamycin, IPTG)
T1 sequence (Q9GZT9 181-426): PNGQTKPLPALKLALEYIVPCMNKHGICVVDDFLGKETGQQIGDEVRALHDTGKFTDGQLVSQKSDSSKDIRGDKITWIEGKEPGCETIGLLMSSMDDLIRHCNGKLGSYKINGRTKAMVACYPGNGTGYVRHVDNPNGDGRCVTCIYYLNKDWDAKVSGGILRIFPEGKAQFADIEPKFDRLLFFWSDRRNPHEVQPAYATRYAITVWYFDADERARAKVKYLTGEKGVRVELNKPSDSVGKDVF

PHD2_181–402 = target: T2, PHD2_181–402 (Homo sapiens, UniProt Q9GZT9); test: Non-denaturing ESI-MS crosslinking, C-terminal truncated PHD2; assay type: binding; settings: equimolar Fe(II) and compound, 3 h, 37 °C, 200 V
T2 construct: C-terminal truncated PHD2 (PHD2_181–402); His6 (N, cleaved yes); made in house; host or cells: bacterial culture (2x TY, kanamycin, IPTG)
T2 sequence (Q9GZT9 181-402): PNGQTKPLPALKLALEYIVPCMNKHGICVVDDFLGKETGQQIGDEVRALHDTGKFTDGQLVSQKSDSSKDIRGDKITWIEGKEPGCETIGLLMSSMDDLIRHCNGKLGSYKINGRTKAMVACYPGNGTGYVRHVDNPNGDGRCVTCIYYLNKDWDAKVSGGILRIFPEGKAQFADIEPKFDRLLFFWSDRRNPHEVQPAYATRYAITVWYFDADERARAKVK
Method: (§1) The site of crosslinking of 3 was investigated using protein variants. First, 3 was incubated with C-terminal truncated PHD2 (PHD2_181–402) and a loop deletion variant (deletion of residues 238–250, PHD2Δ). […] Thus, 3 was incubated with PHD2 constructs truncated at residues 402, 410, 414 and 418. […] Crosslinking experiments with PHD2 R411M implied that R411 is not directly involved in crosslinking (Fig. S11, ESI ^†).
Fig. 3 (A) Non-denaturing ESI-MS data on the flexible loop truncated (top) and C-terminal tail tuncated (bottom) versions of PHD2 in the presence of equimolar Fe(II) and 3 (3 hour incubation, 37 °C. Cone voltage: 200 V). A = [PHD2Δ + Fe], B = [PHD2Δ + Fe + 3], C = [PHD2_181–402 + Fe], D = [PHD2_181–402 + Fe + 3]. (B) MS/MS spectrum of the trypsin derived peptide 403[…]411 crosslinked to 3 identified K408 as the site of crosslinking.
(§2) Fig. S8 Temperature dependence of the rate of crosslinking of 3 with PHD2. PHD2 (20 µM) was incubated with equimolar Fe(II) and 3 in buffer (50 mM Tris, 150 mM NaCl, pH 7.5) at 4, 20 and 37 °C. The ratio of crosslinking after 1, 2, and 4 h was determined by ESI-MS under denaturing conditions (n = 2), error bars represent 1 standard deviation.
(§3) Fig. S9 Ratio of crosslinked PHD2.3 before evaluation of catalytic activity. Labelled peaks correspond to: (A): PHD2, […]

PHD2_181–418 = target: T3, PHD2_181–418 (Homo sapiens, UniProt Q9GZT9); test: Non-denaturing ESI-MS crosslinking, 418 truncate; assay type: binding; settings: equimolar FeSO4 and compound, 3 h, 37 °C, 200 V
T3 construct: Both the 418 (PHD2_181–418); His6 (N, cleaved yes); made in house; host or cells: bacterial culture (2x TY, kanamycin, IPTG)
T3 sequence (Q9GZT9 181-418): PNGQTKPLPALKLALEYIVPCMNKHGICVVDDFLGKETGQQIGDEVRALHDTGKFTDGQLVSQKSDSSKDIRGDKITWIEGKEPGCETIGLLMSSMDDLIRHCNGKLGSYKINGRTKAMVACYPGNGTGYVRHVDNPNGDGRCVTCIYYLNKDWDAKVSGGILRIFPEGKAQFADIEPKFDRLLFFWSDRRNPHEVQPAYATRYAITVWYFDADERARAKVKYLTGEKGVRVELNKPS
Method: as §1, §2, §3
(§4) Fig. S10 Non-denaturing ESI-MS analysis of (a) PHD2 and its C-terminal truncations (b) PHD2181-418; (c) PHD2181-414;
(§5) (d) PHD2181-410; (e) PHD2181-402 in the presence of equimolar amounts of FeSO4 and 3 after 3 hours incubation at 37 °C in ammonium acetate (15 mM, pH 7.5) at a sample cone voltage of 200V. Peaks present: (A): PHD2.Fe; (B): PHD2181-

PHD2_181–414 = target: T4, PHD2_181–414 (Homo sapiens, UniProt Q9GZT9); test: Non-denaturing ESI-MS crosslinking, 414 truncate; assay type: binding; settings: equimolar FeSO4 and compound, 3 h, 37 °C, 200 V
T4 construct: 414 (PHD2_181–414) truncated proteins; His6 (N, cleaved yes); made in house; host or cells: bacterial culture (2x TY, kanamycin, IPTG)
T4 sequence (Q9GZT9 181-414): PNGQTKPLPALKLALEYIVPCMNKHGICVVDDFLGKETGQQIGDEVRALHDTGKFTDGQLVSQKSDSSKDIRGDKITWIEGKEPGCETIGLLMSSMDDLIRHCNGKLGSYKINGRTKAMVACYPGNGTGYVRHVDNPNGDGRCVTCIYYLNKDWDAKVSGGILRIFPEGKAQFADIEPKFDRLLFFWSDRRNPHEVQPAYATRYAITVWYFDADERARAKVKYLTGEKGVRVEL
Method: as §1, §2, §3, §4, §5

- crosslinking with C-terminally truncated PHD2 (PHD2_181–402): near completely absent
- covalent modification of 418 truncate (PHD2_181–418): covalently modified
- covalent modification of 414 truncate (PHD2_181–414): covalently modified
SMILES: C=CC(=O)Nc1cccc(C(=O)NCC(=O)O)c1O [compound 3]
- activity of PHD2 pre-incubated with the compound (PHD2): remained as active as the non pre-incubated, uninhibited PHD2
